Experimental data as given in patent publication US20240165226A1, “COMBINATION TREATMENT OF CD38-EXPRESSING TUMORS” (GENMAB A/S, priority 2006, published 2024).

Legend:
Format in all cases: cell-based
[1] = system: luciferase-transfected Daudi cells; experiment: Annexin-V apoptosis assay; conditions: 5 μg/ml
Experimental: Apoptosis assay was carried out according to the manufacturer's instructions (Annexin-V Apoptosis kit, BD Biosciences, Alphen a.d. Rijn, Netherlands). In short, CD38 mAbs were added to 2.5×10^5 cells (luciferase-transfected Daudi cells, in 0.5 ml RPMI^++ in a 24-wells plate), in a concentration of 5 μg/ml -003 or -005 or an anti-CD20 antibodies alone or in the presence of cross-blocking rb-anti-hIgG (50 μg/ml).
After incubation (37° C., 5% CO2, 20 hr), cells were harvested carefully, and washed with Binding Buffer (1200 rpm, 4° C., 5 min, BD Biosciences). Pellet was resuspended in 100 μl Binding Buffer. Then, 5 μl Annexin-V-FITC (BD Biosciences) and 10 μl PI (BD Biosciences) was added to the suspension and incubated for 15 minutes at RT. 400 μl Binding Buffer was added and the samples were measured (PI readout in FL2). For analysis of apoptotic cells, all Annexin-V-positive cells were counted by flow cytometry using a FACScalibur flow cytometer with CellQuest pro software (BD Biosciences). At least 10,000 events were collected for analysis. This population includes both PI-positive as well as PI-negative cells.

[2] = system: JK6L (a multiple myeloma cell line); experiment: ADCC set up II, JK6L cells; conditions: in words
Experimental: (§1) Human blood from human volunteers (university Erlangen, Erlangen, Germany) was diluted twice in RPMI 1640 and blood cells were layered on Ficoll (Lymphocyte Separation Medium […], 710 g, RT, 20 min; BioWhittaker, Cambrex Bio Science Verviers, Verviers, Belgium, cat. 17-829E, lot no. 0148 32). Peripheral blood mononuclear cells (MNCs) were collected from the interphase, washed and resuspended in RPMI 1640 culture medium supplemented with 10% FCS, 2 mM L-glutamine, 5 U/ml penicillin, 50 μg/ml streptomycin (all derived from BioWhittaker) to which 25 mM HEPES (BioWhittaker) was added.
(§2) Target B-cells (fresh plasma cell leukemia tumor cells, JK6L and AMO-1 B-cell lines, obtained from Dr. T. Valerius, University of Erlangen, Erlangen, Germany) were labeled with 20 μCi ^51Cr (Amersham Biosciences, Uppsala, Sweden) for 2 hours. After extensive washing in RPMI-10, cells were adjusted to 1×10^5 cells/ml. […] After incubation (3 hr, 37° C.), assays were stopped by centrifugation, and 51Cr release from triplicates was measured in counts per minute (cpm) in a scintillation counter. Percentage of cellular cytotoxicity was calculated using the following formula: […]
(§3) with maximal ^51Cr release determined by adding perchloric acid (3% final concentration) to target cells, and basal release was measured in the absence of sensitizing antibodies and effector cells.

[3] = system: AMO-1 (a multiple myeloma cell line); experiment: ADCC set up II, AMO-1 cells; conditions: CD38 expression is low
Experimental: as §1, §2, §3

For “-005: human monoclonal IgG1 anti-CD38 antibody, VL region SEQ ID No:12 and VH region SEQ ID No:17”, the induction of apoptosis ([1]; after cross-linking with rb-anti-hIgG (50 μg/ml)) was “less able to induce apoptosis”, the induction of apoptosis ([1]; without cross-linking) was “do not induce apoptosis” and the “lysis of JK6L by ADCC” value [2] was “lysis is induced”. The “lysis of AMO-1 by ADCC” value [3] was “lysis is induced”.
